Columns and labels:
[1] = target: XIAP BIR1/2 (Homo sapiens, UniProt P98170); experiment: XIAP BIR1/2 Ki; assay type: binding
[2] = target: XIAP BIR3 (Homo sapiens (Human), UniProt P98170); experiment: XIAP BIR3 Ki; assay type: binding
[3] = target: ML-IAP (Homo sapiens (Human), UniProt Q96CA5); experiment: ML-IAP Ki; assay type: binding
[4] = tested on: PPC-1 cells; experiment: PPC-1 cell survival with TNFα; assay type: cell-based
Description: 5000 PPC-1 cells were plated and grown overnight. […] Plates were return to the incubator for 24 hrs. Plates were removed from the incubator and placed on the bench for 30 min and then 25 uL of Cell Titer Glo were added per well. Plates were placed on a rocker and then read on a luminometer. 5000 MDA-MB-231 cells were plated per well. Compound was added and 4 hrs later, TRAIL was added at 5 ng/mL; RPMI was added for a minus TRAIL control. Plates were incubated an additional 24 hrs, removed to the bench for 30 min, and then 25 uL of cell titer glo was added per well. Plates were placed on a rocker and read on a luminometer. Data were fit using PRISM.

[5] = tested on: PPC-1 cells; experiment: PPC-1 cell survival with TRAIL (Cell Titer Glo); assay type: cell-based
Description: (§1) 5000 PPC-1 cells were plated and grown overnight. Compounds were plated and 4 hrs later, TRAIL was added to half of the plate while RPMI was added to the other half of the plate as a control. Plates were return to the incubator for 24 hrs. Plates were removed from the incubator and placed on the bench for 30 min and then 25 uL of Cell Titer Glo were added per well. Plates were placed on a rocker and then read on a luminometer. 5000 MDA-MB-231 cells were plated per well. Compound was added and 4 hrs later, TRAIL was added at 5 ng/mL; RPMI was added for a minus TRAIL control. Plates were incubated an additional 24 hrs, removed to the bench for 30 min, and then 25 uL of cell titer glo was added per well. Plates were placed on a rocker and read on a luminometer. Data were fit using PRISM.

[6] = tested on: MDA-MB-231 cells; experiment: MDA-MB-231 cell survival (Cell Titer Glo); assay type: cell-based
Description: as §1

Sequence of ML-IAP (Q96CA5 whole entry, species assumed): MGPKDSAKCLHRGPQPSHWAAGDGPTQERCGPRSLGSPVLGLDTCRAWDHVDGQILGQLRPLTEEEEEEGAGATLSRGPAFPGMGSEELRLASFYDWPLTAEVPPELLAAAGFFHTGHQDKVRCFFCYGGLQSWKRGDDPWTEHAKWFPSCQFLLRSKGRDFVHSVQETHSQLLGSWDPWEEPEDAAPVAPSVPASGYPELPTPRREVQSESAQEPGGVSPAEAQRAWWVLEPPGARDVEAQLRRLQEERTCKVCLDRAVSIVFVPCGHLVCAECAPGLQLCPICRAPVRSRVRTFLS
Sequence of XIAP BIR1/2 (P98170 whole entry, looked up): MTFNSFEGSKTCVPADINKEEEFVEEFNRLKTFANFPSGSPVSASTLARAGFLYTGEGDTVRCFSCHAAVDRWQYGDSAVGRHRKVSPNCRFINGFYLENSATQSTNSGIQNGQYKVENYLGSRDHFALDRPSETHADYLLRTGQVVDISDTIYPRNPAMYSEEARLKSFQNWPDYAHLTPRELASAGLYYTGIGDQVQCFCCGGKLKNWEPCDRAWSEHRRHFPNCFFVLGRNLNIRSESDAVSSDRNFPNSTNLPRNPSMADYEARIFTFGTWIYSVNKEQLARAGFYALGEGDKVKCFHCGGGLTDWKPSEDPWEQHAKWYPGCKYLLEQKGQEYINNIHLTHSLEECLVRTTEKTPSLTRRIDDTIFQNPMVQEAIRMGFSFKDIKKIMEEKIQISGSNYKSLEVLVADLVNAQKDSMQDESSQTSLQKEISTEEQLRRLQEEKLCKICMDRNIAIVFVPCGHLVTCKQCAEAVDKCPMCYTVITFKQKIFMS
Sequence of XIAP BIR3 (P98170 241-356): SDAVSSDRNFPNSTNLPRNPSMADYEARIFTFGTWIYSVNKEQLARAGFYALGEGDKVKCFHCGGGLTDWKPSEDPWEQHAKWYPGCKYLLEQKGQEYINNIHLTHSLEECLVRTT

| Compound | Ki ([1]; Table B-1) | Ki ([2]; Table B-1) | Ki ([3]; Table B-1) | other results |
| --- | --- | --- | --- | --- |
| CN[C@@H](C)C(=O)N[C@H]1CCO[C@H]2CC(C)(C)C(C(=O)Nc3ccccc3SSc3ccccc3NC(=O)C3N4C(=O)[C@@H](NC(=O)[C@H](C)NC)CCO[C@H]4CC3(C)C)N2C1=O (stereo partly shown) [Product 40] | < 25 µM | < 25 µM | – | – |
| CN[C@@H](C)C(=O)N[C@H]1CCO[C@H]2CC3(CC=CC3)C(C(=O)N[C@@H]3CCCc4ccccc43)N2C1=O (stereo partly shown) [Product 42] | < 25 µM | < 25 µM | < 25 µM | – |
| CN[C@@H](C)C(=O)N[C@H]1CCO[C@H]2CC[C@@H](C(=O)Nc3cccc4ccccc34)N2C1=O [Product 25] | < 25 µM | < 25 µM | – | – |
| CN[C@@H](C)C(=O)N[C@H]1CCO[C@H]2CC(C)(C)[C@@H](C(=O)N[C@@H]3CCCc4ccccc43)N2C1=O [Product 26] | < 25 µM | < 25 µM | < 25 µM | PPC-1 (TNFα) LD50 [4]: A (A = ≤ 25 micromolar); PPC-1 (TRAIL) LD50 [5]: A (A = ≤ 25 micromolar); MDA-MB-231 LD50 [6]: A (A = ≤ 25 micromolar) |
| CN[C@@H](C)C(=O)N[C@H]1CCN[C@H]2CCC(C(=O)N[C@@H]3CCCc4ccccc43)N2C1=O (stereo partly shown) [Product 28] | > 50 µM | – | – | – |
| CN[C@@H](C)C(=O)N[C@H]1CCS[C@H]2CC[C@@H](C(=O)N[C@@H]3CCCc4ccccc43)N2C1=O [Product 34] | > 50 µM | < 25 µM | < 25 µM | PPC-1 (TNFα) LD50 [4]: A (A = ≤ 25 micromolar); PPC-1 (TRAIL) LD50 [5]: A (A = ≤ 25 micromolar) |
| CN[C@@H](C)C(=O)N[C@H]1CCS[C@H]2CC(C)(C)C(C(=O)N[C@@H]3CCCc4ccccc43)N2C1=O (stereo partly shown) [Product 35] | < 25 µM | < 25 µM | < 25 µM | PPC-1 (TNFα) LD50 [4]: A (A = ≤ 25 micromolar); PPC-1 (TRAIL) LD50 [5]: A (A = ≤ 25 micromolar) |
| CN[C@@H](C)C(=O)N[C@H]1CCCNC2CCC(C(=O)N[C@@H]3CCCc4ccccc43)N2C1=O (stereo partly shown) [Product 16] | – | < 25 µM | – | – |
| CN[C@@H](C)C(=O)N[C@H]1CCO[C@H]2CC[C@@H](C(=O)N[C@@H]3CCOc4ccccc43)N2C1=O [Product 32] | > 50 µM | < 25 µM | < 25 µM | PPC-1 (TNFα) LD50 [4]: A (A = ≤ 25 micromolar); PPC-1 (TRAIL) LD50 [5]: A (A = ≤ 25 micromolar); MDA-MB-231 LD50 [6]: A (A = ≤ 25 micromolar) |
| CN[C@@H](C)C(=O)N[C@H]1CCO[C@H]2CC(C)(C)C(C(=O)N[C@@H]3CCCc4ccccc43)N2C1=O (stereo partly shown) [Product 17b] | – | – | – | Ki ([1]; Table 2-2): < 25 µM; Ki ([2]; Table 2-2): < 25 µM; Ki ([3]; Table 2-2): < 25 µM |
| CN[C@@H](C)C(=O)N[C@H]1CCO[C@H]2c3ccccc3C(C(=O)N[C@@H]3CCCc4ccccc43)N2C1=O (stereo partly shown) [Product 17a] | – | – | – | Ki ([1]; Table 2-2): > 50 µM; Ki ([2]; Table 2-2): < 25 µM; Ki ([3]; Table 2-2): < 25 µM |
| CNC(C)C(=O)N[C@H]1CO[C@H]2CCC(C(=O)Nc3ccc(OC)cc3)N2C1=O (stereo partly shown) [Product 4] | > 50 µM | 25 to 50 µM | – | – |
| CN[C@@H](C)C(=O)N[C@H]1Cc2c([nH]c3ccccc23)[C@H]2CCC(C(=O)N[C@@H]3CCCc4ccccc43)N2C1=O (stereo partly shown) [Product 30] | > 50 µM | 25 to 50 µM | – | – |
| CN[C@@H](C)C(=O)N[C@H]1CCS(=O)(=O)[C@H]2CC[C@@H](C(=O)N[C@@H]3CCCc4ccccc43)N2C1=O [Product 37] | > 50 µM | < 25 µM | – | – |
| CN[C@@H](C)C(=O)N[C@H]1CCO[C@H]2CC[C@H](C(=O)N[C@@H]3CCOc4ccccc43)N2C1=O [Product 39] | > 50 µM | – | – | – |
| CN[C@@H](C)C(=O)N[C@H]1CCCNC2CCC(C(=O)Nc3cccc4ccccc34)N2C1=O (stereo partly shown) [Product 17] | < 25 µM | < 25 µM | – | – |
| CN[C@@H](C)C(=O)N[C@H]1CCS[C@H]2CC[C@H](C(=O)N[C@@H]3CCCc4ccccc43)N2C1=O [Product 36] | > 50 µM | < 25 µM | < 25 µM | – |
| CN[C@@H](C)C(=O)N[C@H]1CCO[C@H]2c3ccccc3C(C(=O)N[C@@H]3CCCc4ccccc43)N2C1=O (stereo partly shown) [Product 27] | > 50 µM | < 25 µM | < 25 µM | PPC-1 (TNFα) LD50 [4]: A (A = ≤ 25 micromolar); PPC-1 (TRAIL) LD50 [5]: A (A = ≤ 25 micromolar) |
| CN[C@@H](C)C(=O)N[C@H]1CCS[C@H]2CCC(C(=O)N[C@@H]3CCCc4ccccc43)N2C1=O (stereo partly shown) [Product 24] | > 50 µM | < 25 µM | < 25 µM | PPC-1 (TNFα) LD50 [4]: A (A = ≤ 25 micromolar); PPC-1 (TRAIL) LD50 [5]: A (A = ≤ 25 micromolar); MDA-MB-231 LD50 [6]: A (A = ≤ 25 micromolar) |
| CN[C@@H](C)C(=O)N[C@H]1CO[C@H]2CCC(C(=O)Nc3ccc(OC)cc3)N2C1=O (stereo partly shown) [Product 3] | > 50 µM | – | – | – |
| CN[C@@H](C)C(=O)N[C@H]1Cc2ccc(O)cc2[C@H]2CC(C)(C)C(C(=O)N[C@@H]3CCCc4ccccc43)N2C1=O (stereo partly shown) [Product 45] | < 25 µM | < 25 µM | – | – |

| Compound | Ki ([1]; Table B-1) | Ki ([2]; Table B-1) | Ki ([3]; Table B-1) | other results |
| --- | --- | --- | --- | --- |
| CN[C@@H](C)C(=O)NC1CCO[C@H]2CC[C@@H](C(=O)n3ccc4ccccc43)N2C1=O (stereo partly shown) [Product 23] | > 50 µM | 25 to 50 µM | – | – |
| CN[C@@H](C)C(=O)N[C@H]1CCN[C@H]2CCC(C(=O)N[C@@H]3CCCc4ccccc43)N2C1=O (stereo partly shown) [Product 29] | – | > 50 µM | – | – |
| CN[C@@H](C)C(=O)NC1CCO[C@H]2CC[C@H](C(=O)n3ccc4ccccc43)N2C1=O (stereo partly shown) [Product 22] | > 50 µM | 25 to 50 µM | – | – |
| CN[C@@H](C)C(=O)N[C@H]1CO[C@H]2CCC(C(=O)NCc3ccccc3)N2C1=O (stereo partly shown) [Product 5] | > 50 µM | – | – | – |
| CN[C@@H](C)C(=O)N[C@@H]1C(=O)N2C(C(=O)NC3CCCc4ccccc43)CC[C@@H]2O[C@@H]1C (stereo partly shown) [Product 10] | > 50 µM | < 25 µM | < 25 µM | – |
| CN[C@@H](C)C(=O)N[C@H]1CO[C@H]2CCC(C(=O)Nc3ccc(Cl)cc3)N2C1=O (stereo partly shown) [Product 8] | > 50 µM | – | – | – |
| CN[C@@H](C)C(=O)N[C@H]1CCCN(C(C)=O)C2CCC(C(=O)N[C@@H]3CCCc4ccccc43)N2C1=O (stereo partly shown) [Product 20] | > 50 µM | < 25 µM | – | – |
| CN[C@@H](C)C(=O)N[C@H]1CO[C@H]2CCC(C(=O)NC3CCCc4ccccc43)N2C1=O (stereo partly shown) [Product 9] | > 50 µM | < 25 µM | – | – |
| CN[C@@H](C)C(=O)N[C@H]1Cc2c([nH]c3ccccc23)[C@H]2CCC(C(=O)N[C@@H]3CCCc4ccccc43)N2C1=O (stereo partly shown) [Product 31] | < 25 µM | < 25 µM | – | – |
| CN[C@@H](C)C(=O)N[C@H]1CCO[C@H]2CC3(CCCC3)C(C(=O)N[C@@H]3CCCc4ccccc43)N2C1=O (stereo partly shown) [Product 43] | < 25 µM | < 25 µM | – | – |
| CN[C@@H](C)C(=O)N[C@@H]1C(=O)N2C(C(=O)NC(c3ccccc3)c3ccccc3)CC[C@@H]2O[C@@H]1C (stereo partly shown) [Product 15] | > 50 µM | – | – | – |
| CN[C@@H](C)C(=O)NC1CCO[C@H]2CCC(C(=O)Nc3cccc4ccccc34)N2C1=O (stereo partly shown) [Product 13] | < 25 µM | < 25 µM | – | – |
| CN[C@@H](C)C(=O)N[C@H]1CCO[C@H]2CC[C@@H](C(=O)N[C@@H]3CCCc4ccccc43)N2C1=O [Product 33] | > 50 µM | < 25 µM | < 25 µM | PPC-1 (TNFα) LD50 [4]: A (A = ≤ 25 micromolar); PPC-1 (TRAIL) LD50 [5]: A (A = ≤ 25 micromolar) |
| CN[C@@H](C)C(=O)N[C@H]1CCS[C@H]2CCCC(C(=O)N[C@@H]3CCCc4ccccc43)N2C1=O (stereo partly shown) [Product 41] | < 25 µM | < 25 µM | – | – |
| CC(=O)N(C)[C@@H](C)C(=O)N[C@H]1CCCN(C(C)=O)[C@H]2CCC(C(=O)Nc3cccc4ccccc34)N2C1=O (stereo partly shown) [Product 18] | > 50 µM | – | – | – |
| CN[C@@H](C)C(=O)N[C@H]1CCS[C@H]2CC(C)(C)C(C(=O)N[C@@H]3CCCc4ccccc43)N2C1=O (stereo partly shown) [Product 17c] | – | – | – | Ki ([1]; Table 2-2): < 25 µM; Ki ([2]; Table 2-2): < 25 µM; Ki ([3]; Table 2-2): < 25 µM |
| CN[C@@H](C)C(=O)N[C@H]1CC(=O)N[C@H]2CC(C)(C)C(C(=O)N[C@@H]3CCCc4ccccc43)N2C1=O (stereo partly shown) [Product 46] | > 50 µM | < 25 µM | < 25 µM | – |
| CN[C@@H](C)C(=O)N[C@H]1CCO[C@H]2CCC(C(=O)N[C@@H]3CCCc4ccccc43)N2C1=O (stereo partly shown) [Product 12] | > 50 µM | < 25 µM | < 25 µM | PPC-1 (TNFα) LD50 [4]: A (A = ≤ 25 micromolar); PPC-1 (TRAIL) LD50 [5]: A (A = ≤ 25 micromolar); MDA-MB-231 LD50 [6]: A (A = ≤ 25 micromolar) |
| CN[C@@H](C)C(=O)N[C@H]1CCS(=O)(=O)[C@H]2CC[C@H](C(=O)N[C@@H]3CCCc4ccccc43)N2C1=O [Product 38] | > 50 µM | – | – | – |
| CN[C@@H](C)C(=O)N[C@@H]1C(=O)N2C(C(=O)Nc3cccc4ccccc34)CC[C@@H]2O[C@@H]1C (stereo partly shown) [Product 11] | > 50 µM | – | – | – |
| CN[C@@H](C)C(=O)N[C@H]1CCO[C@H]2CCC(C(=O)NC(c3ccccc3)c3ccccc3)N2C1=O (stereo partly shown) [Product 14] | > 50 µM | < 25 µM | < 25 µM | – |

— patent publication US11111270B2, “Inhibitor of apoptosis protein (IAP) antagonists” (Sanford Burnham Prebys Medical Discovery Institute, priority 2012, dated 2021)
